≈ marks a conversion by molar mass, not a printed value. Where “and” joins values, the source holds several entries; their conditions need not be identical. Equal entries are not always repeated. Structures can show the parent of a compound that is named as a salt. Where two headings read alike, the source gives them in different places.
How the values were obtained:
B. fragilis NCTC 10581 = test: Anti-anaerobic activity, microtitre plate broth dilution, strain A; type: cell-based, Bacteroides fragilis; details: for MBC / MIC: Bacteroides fragilis, NCTC10581, 48 h; for MBC: read-out: MBC (Minimum Bactericidal Concentration); for MIC: 48 hours at 37° C., anaerobic, read-out: MIC (Minimum Inhibitory Concentration)
B. fragilis NCTC 9343 = test: Anti-anaerobic activity, microtitre plate broth dilution, strain B; type: cell-based, Bacteroides fragilis; details: for MBC / MIC: Bacteroides fragilis, NCTC9343, 48 h; for MBC: read-out: MBC (Minimum Bactericidal Concentration); for MIC: read-out: MIC (Minimum Inhibitory Concentration)
B. fragilis NCTC 9344 = test: Anti-anaerobic activity, microtitre plate broth dilution, strain C; type: cell-based; details: Bacteroides fragilis, NCTC9344, 48 h; for MBC: 99.9% reduction in viable count, 48 hours, read-out: MBC (Minimum Bactericidal Concentration); for MIC: 48 hours at 37° C., anaerobic, read-out: MIC (Minimum Inhibitory Concentration)
[1] = system: B. fragilis MZ-R ATCC 11295; test: Anti-anaerobic activity, microtitre plate broth dilution, strain D; type: cell-based, Bacteroides fragilis; details: for MBC / MIC: Bacteroides fragilis, ATCC11295, 48 h; for MBC: 99.9% reduction in viable count, 48 hours, read-out: MBC (Minimum Bactericidal Concentration); for MIC: read-out: MIC (Minimum Inhibitory Concentration)
B. fragilis WS-1 = test: Anti-anaerobic activity, microtitre plate broth dilution, strain E; type: cell-based; details: Bacteroides fragilis, WS1, 48 h, 48 hours at 37° C., read-out: MIC (Minimum Inhibitory Concentration)
[2] = system: Clostridium perfringens NCTC 523; test: microbe, parasite or virus in culture; type: cell-based; details: NCTC523
[3] = system: Clostridium perfringens NCTC 8237; test: microbe, parasite or virus in culture; type: cell-based; details: NCTC8237, strain G
[4] = system: Fusobacterium necrophorum ATCC 11295; test: Anti-anaerobic activity, additional strains, strain J; type: cell-based
[5] = system: Peptococcus magnus ATCC 29328; test: Anti-anaerobic activity, additional strains, strain K; type: cell-based; details: Finegoldia magna, ATCC29328
[6] = system: Peptococcus prevotti ATCC 9321; test: Anti-anaerobic activity, additional strains, strain L; type: cell-based
[7] = system: Propionibacterium acnes NCTC 737; test: Anti-anaerobic activity, additional strains, strain N; type: cell-based; details: Cutibacterium acnes, NCTC737
[8] = system: Propionibacterium acnes NCTC 7337; test: Anti-anaerobic activity, additional strains, strain O; type: cell-based; details: Cutibacterium acnes, NCTC7337
Clostridium difficile CI = test: Anti-anaerobic activity, additional strains, strain H; details: Clostridioides difficile
[9] = system: Campylobacter fetus ATCC 29428; test: Anti-anaerobic activity, additional strains, strain I; details: ATCC29428
[10] = system: Peptostreptococcus anaerobicus ATCC 27337; test: Anti-anaerobic activity, additional strains, strain M; details: ATCC27337
[11] = strain A, 99.9% reduction in viable count, 48 hours
[12] = 99.9% reduction in viable count, 48 hours
[13] = strain D, 48 hours at 37° C., anaerobic
[14] = ATCC11295, strain J, read-out: MIC

Row | SMILES | MBC (B. fragilis NCTC 10581; [11]) [µg/mL] | MIC (B. fragilis NCTC 10581; strain A) [µg/mL] | MBC (B. fragilis NCTC 9343; [12]) [µg/mL] | MIC (B. fragilis NCTC 9343; 48 hours at 37° C., anaerobic) [µg/mL] | MBC (B. fragilis NCTC 9344) [µg/mL] | MIC (B. fragilis NCTC 9344) [µg/mL] | MBC ([1]; strain D) [µg/mL] | MIC [1, 13] [µg/mL] | MIC (B. fragilis WS-1) [µg/mL] | MIC [2] [µg/mL] | MIC [3] [µg/mL] | MIC [9] [µg/mL] | MIC [10] [µg/mL] | MIC [4, 14] [µg/mL] | MIC ([7]; strain N, read-out: MIC) [µg/mL] | further results
1 | O=C(c1ccc(Cl)cc1Cl)C(Cn1ccnc1)c1ccccc1 (stereo not drawn) [Example 2, 1-(2,4-Dichlorophenyl)-3-(imidazol-1-yl)-2-phenylpropan-1-one] | 0.8 (≈ 2.32 µM) | 0.8 (≈ 2.32 µM) | 0.8 (≈ 2.32 µM) | 0.8 (≈ 2.32 µM) | 0.8 (≈ 2.32 µM) | 0.8 (≈ 2.32 µM) | 0.8 (≈ 2.32 µM) | 0.8 (≈ 2.32 µM) | 0.8 (≈ 2.32 µM) | 0.8 (≈ 2.32 µM) | 0.8 (≈ 2.32 µM) | 0.8 (≈ 2.32 µM) | 0.8 (≈ 2.32 µM) |  |  | MIC ([4]; ATCC11295): 0.8 µg/mL (≈ 2.32 µM); MIC [5]: 0.8 µg/mL (≈ 2.32 µM); MIC [6]: 0.8 µg/mL (≈ 2.32 µM); MIC [7]: 0.8 µg/mL (≈ 2.32 µM); MIC [8]: 0.8 µg/mL (≈ 2.32 µM); MIC (Clostridium difficile CI): 0.8 µg/mL (≈ 2.32 µM)
2 | Cc1ccc(C(Cn2ccnc2)C(=O)c2ccc(Cl)cc2Cl)cc1 (stereo not drawn) [Example 15, 1-(2,4-Dichlorophenyl)-3-(imidazol-1-yl)-2-(4-methylphenyl) propan-1-one] | 0.8 (≈ 2.23 µM) | 0.8 (≈ 2.23 µM) | 0.8 (≈ 2.23 µM) | 0.8 (≈ 2.23 µM) | 0.8 (≈ 2.23 µM) | 0.8 (≈ 2.23 µM) | 0.8 (≈ 2.23 µM) | 0.8 (≈ 2.23 µM) | 0.8 (≈ 2.23 µM) | 0.3 (≈ 0.835 µM) | 0.6 (≈ 1.67 µM) |  |  | 0.3 (≈ 0.835 µM) | 0.6 (≈ 1.67 µM) | MIC ([8]; strain O, read-out: MIC): 0.1 µg/mL (≈ 0.278 µM)
3 | Cc1ccc(C(Cn2cncn2)C(=O)c2ccc(Cl)cc2Cl)cc1 (stereo not drawn) [Example 16, 1-(2,4-Dichlorophenyl)-2-(4-methylphenyl)-3-(1,2,4-triazol-1-yl)propan-1-one hydrochloride] | 3.1 | 3.1 | 3.1 | 3.1 | 3.1 | 3.1 | 15 | 0.8 | 1.5 |  |  |  |  |  |  | 
4 | CCCCCCCC(=O)C(Cn1ccnc1)c1ccc(C)cc1 (stereo not drawn) [Example 17, 1-(Imidazol-1-yl)-2-(4-methylphenyl)decan-3-one hydrochloride] | 100 | 12.5 | 100 | 12.5 |  |  | 100 | 3.1 | 12.5 |  |  |  |  |  |  | 
5 | O=C(c1cc(Cl)cc(Cl)c1)C(Cn1ccnc1)c1ccccc1 (stereo not drawn) [Example 18, 1-(3,5-Dichlorophenyl)-3-(imidazol-1yl)-2-phenyl propan-1-one] | 1.5 (≈ 4.34 µM) | 0.8 (≈ 2.32 µM) | 1.5 (≈ 4.34 µM) | 1.5 (≈ 4.34 µM) | 0.8 (≈ 2.32 µM) | 0.8 (≈ 2.32 µM) | 1.5 (≈ 4.34 µM) | 0.8 (≈ 2.32 µM) | 1.5 (≈ 4.34 µM) | 3.1 (≈ 8.98 µM) | 3.1 (≈ 8.98 µM) | 3.1 (≈ 8.98 µM) | 6.2 (≈ 18 µM) | 6.2 (≈ 18 µM) | 6.2 (≈ 18 µM) | MIC [5]: 3.1 µg/mL (≈ 8.98 µM); MIC [6]: 3.1 µg/mL (≈ 8.98 µM); MIC [8]: 3.1 µg/mL (≈ 8.98 µM); MIC (Clostridium difficile CI; strain H): 1.5 µg/mL (≈ 4.34 µM)
6 | O=C(c1cccnc1)C(Cn1ccnc1)c1ccccc1 (stereo not drawn) [Example 19, 3-(Imidazol-1-yl)-2-phenyl-1-(3-pyridyl)propan-1-one] | 50 (≈ 180 µM) | 12.5 (≈ 45.1 µM) | 50 (≈ 180 µM) | 12.5 (≈ 45.1 µM) | 50 (≈ 180 µM) | 12.5 (≈ 45.1 µM) | 50 (≈ 180 µM) | 12.5 (≈ 45.1 µM) | 6.2 (≈ 22.4 µM) |  |  |  |  |  |  | 
7 | O=C(c1cccnc1)C(Cn1cncn1)c1ccccc1 (stereo not drawn) [Example 20, 2-Phenyl-1-(3-pyridyl)-3-(1,2,4-triazol-1-yl)propan-1-one] |  | 100 (≈ 359 µM) |  | 100 (≈ 359 µM) |  | 100 (≈ 359 µM) |  | 100 (≈ 359 µM) | 100 (≈ 359 µM) |  |  |  |  |  |  | 
8 | O=C(c1ccccn1)C(Cn1ccnc1)c1ccccc1 (stereo not drawn) [Example 21, 3-(Imidazol-1-yl)-2-phenyl-1-(2-pyridyl)propan-1-one] | 12.5 (≈ 45.1 µM) | 12.5 (≈ 45.1 µM) | 25 (≈ 90.1 µM) | 25 (≈ 90.1 µM) | 12.5 (≈ 45.1 µM) | 6.2 (≈ 22.4 µM) | 6.2 (≈ 22.4 µM) | 6.2 (≈ 22.4 µM) | 25 (≈ 90.1 µM) |  |  |  |  |  |  | 
9 | CC(C)(C)C(Cn1ccnc1)C(=O)c1ccc(Cl)cc1Cl (stereo not drawn) [Example 22, 1-(2,4-Dichlorophenyl)-3,3-dimethyl-2-(imidazol-1-ylmethyl)butan-1-one] |  | 50 (≈ 154 µM) |  | 50 (≈ 154 µM) |  | 50 (≈ 154 µM) |  | 50 (≈ 154 µM) | 100 (≈ 307 µM) |  |  |  |  |  |  | 
10 | O=C(c1ccc(Cl)cc1Cl)C(Cn1cncn1)c1ccccc1 (stereo not drawn) [Example 23, 1-(2,4-Dichlorophenyl)-2-phenyl-3-(1,2,4-triazol-1-yl) propan-1-one] | 0.8 (≈ 2.31 µM) | 0.8 (≈ 2.31 µM) | 0.8 (≈ 2.31 µM) | 0.8 (≈ 2.31 µM) | 0.8 (≈ 2.31 µM) | 0.8 (≈ 2.31 µM) | 0.8 (≈ 2.31 µM) | 0.8 (≈ 2.31 µM) | 0.8 (≈ 2.31 µM) |  |  |  |  |  |  | 
11 | CSc1nccn1CC(C(=O)c1ccc(Cl)cc1Cl)c1ccccc1 (stereo not drawn) [Example 24, 1-(2,4-Dichlorophenyl)-2-phenyl-3-(2-thiomethylimidazol-1-yl)propan-1-one] | 100 (≈ 256 µM) | 25 (≈ 63.9 µM) | 100 (≈ 256 µM) | 25 (≈ 63.9 µM) | 100 (≈ 256 µM) | 25 (≈ 63.9 µM) | 100 (≈ 256 µM) | 25 (≈ 63.9 µM) | 50 (≈ 128 µM) |  |  |  |  |  |  | 
12 | O=C(Cc1ccccc1)C(Cn1ccnc1)c1ccccc1 (stereo not drawn) [Example 25, 1,3-Diphenyl-4-(imidazol-1-yl)butan-2-one] |  | 25 (≈ 86.1 µM) |  | 25 (≈ 86.1 µM) |  | 25 (≈ 86.1 µM) |  | 12.5 (≈ 43 µM) | 25 (≈ 86.1 µM) | 0.8 (≈ 2.76 µM) | 0.8 (≈ 2.76 µM) | 25 (≈ 86.1 µM) | 1.5 (≈ 5.17 µM) | 100 (≈ 344 µM) | 50 (≈ 172 µM) | MIC ([5]; strain K, read-out: MIC): 6.2 µg/mL (≈ 21.4 µM); MIC [6]: 0.8 µg/mL (≈ 2.76 µM); MIC (Clostridium difficile CI; strain H): 25 µg/mL (≈ 86.1 µM)
13 | Cc1ncc([N+](=O)[O-])n1CCO [Metronidazole, reference compound] | 0.8 (≈ 4.67 µM) |  | 0.8 (≈ 4.67 µM) | 0.8 (≈ 4.67 µM) |  |  |  |  |  | 0.08 (≈ 0.467 µM) |  | 10 (≈ 58.4 µM) | 0.3 (≈ 1.75 µM) | 10 (≈ 58.4 µM) | 10 (≈ 58.4 µM) | MBC (B. fragilis NCTC 10581): 1.2 µg/mL (≈ 7.01 µM); MBC (Minimum Bactericidal Concentration) (B. fragilis NCTC 10581; [11]): 1.2 µg/mL and 0.6 µg/mL; MBC (Minimum Bactericidal Concentration) (B. fragilis NCTC 9343; [12]): 1.2 µg/mL and 0.6 µg/mL; MIC (Minimum Inhibitory Concentration) (B. fragilis NCTC 9343; 48 hours at 37° C., anaerobic): 0.6 µg/mL and 1.2 µg/mL; MIC [1]: 10 µg/mL (≈ 58.4 µM); MIC (Minimum Inhibitory Concentration) [1, 13]: 10.9 µg/mL and 10.0 µg/mL and 10 µg/mL; MIC ([5]; strain K, read-out: MIC): 0.6 µg/mL (≈ 3.51 µM); MIC ([8]; strain O, read-out: MIC): 10 µg/mL (≈ 58.4 µM)
